Experimental data published in patent publication US20240391931A1 (Bristol-Myers Squibb Company, priority 2021, published 2024).

Target: T1, HER2 wildtype (WT) protein (Homo sapiens, UniProt P04626)
T1 construct: BT474 and N87 cell lines which endogenously overexpress the HER2 wildtype (WT) protein; endogenous in cells; host or cells: BT474, N87
Experiment: HER2 signaling (pHER2 Tyr1248/total HER2 MSD) in BT474 cells
Format: cell-based
Settings: 1.5 hr compound, 1% FBS
Summary of the method: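 BT474, N87 (HER2 WT) and NCI-H1781 (HER2 G776delinsVC) cells were treated for 1.5 h at 37° C in 1% FBS medium with compound at 0.0005–1.1 μM. pHER2 Tyr1248 was measured by MSD on whole-cell lysates and normalized to total HER2 as % DMSO. EC50 came from a variable-slope sigmoidal fit.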

T1 sequence (P04626 23-1255): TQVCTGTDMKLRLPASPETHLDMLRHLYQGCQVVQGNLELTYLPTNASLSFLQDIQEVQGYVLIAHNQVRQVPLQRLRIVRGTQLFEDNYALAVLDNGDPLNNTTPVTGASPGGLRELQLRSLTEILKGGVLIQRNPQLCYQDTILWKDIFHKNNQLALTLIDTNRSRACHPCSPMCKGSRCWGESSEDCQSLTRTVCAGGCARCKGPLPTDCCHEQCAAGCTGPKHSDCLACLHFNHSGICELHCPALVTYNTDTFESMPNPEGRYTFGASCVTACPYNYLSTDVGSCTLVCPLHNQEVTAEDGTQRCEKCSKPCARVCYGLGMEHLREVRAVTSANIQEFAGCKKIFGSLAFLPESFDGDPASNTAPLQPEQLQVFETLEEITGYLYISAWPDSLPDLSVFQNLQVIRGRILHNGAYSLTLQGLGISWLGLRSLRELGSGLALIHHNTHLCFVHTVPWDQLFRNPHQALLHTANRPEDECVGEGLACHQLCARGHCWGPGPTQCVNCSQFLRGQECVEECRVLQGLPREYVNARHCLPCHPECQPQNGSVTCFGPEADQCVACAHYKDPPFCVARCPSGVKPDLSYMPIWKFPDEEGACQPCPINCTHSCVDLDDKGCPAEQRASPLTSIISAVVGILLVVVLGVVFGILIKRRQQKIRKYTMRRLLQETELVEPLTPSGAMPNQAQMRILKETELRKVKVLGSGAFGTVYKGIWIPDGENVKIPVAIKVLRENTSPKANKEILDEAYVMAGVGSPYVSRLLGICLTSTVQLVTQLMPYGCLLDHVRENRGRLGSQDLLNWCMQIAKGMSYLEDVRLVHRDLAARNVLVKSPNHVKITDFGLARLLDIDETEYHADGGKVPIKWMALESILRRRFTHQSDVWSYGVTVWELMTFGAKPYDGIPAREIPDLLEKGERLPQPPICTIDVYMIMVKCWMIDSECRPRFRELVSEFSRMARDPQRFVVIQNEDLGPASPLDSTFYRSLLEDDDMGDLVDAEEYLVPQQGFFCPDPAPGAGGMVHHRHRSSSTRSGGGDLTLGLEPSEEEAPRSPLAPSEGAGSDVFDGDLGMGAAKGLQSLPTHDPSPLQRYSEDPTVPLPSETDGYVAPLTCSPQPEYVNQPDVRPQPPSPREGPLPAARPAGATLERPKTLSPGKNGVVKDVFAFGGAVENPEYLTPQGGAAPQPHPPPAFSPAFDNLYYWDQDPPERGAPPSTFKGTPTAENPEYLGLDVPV

## Cc1cc(Nc2ncnc3sc4c(c23)CCN(C(=O)/C=C/CN2CC3CCC(C3)C2)C4)ccc1Oc1ccc2ncnn2c1 [Compound 20]
  EC50: < 100 nM

## Cc1ncc(Oc2ccc(Nc3ncnc4sc5c(c34)CCN(C(=O)/C=C/CN(C)C)C5)cc2C)cn1 [Compound 21, (E)-4-(dimethylamino)-1-(4-((3-methyl-4-((2-methylpyrimidin-5-yl)oxy)phenyl)amino)-5,8-dihydropyrido[4′,3′:4,5]thieno[2,3-d]pyrimidin-7(6H)-yl)but-2-en-1-one]
  EC50: < 100 nM

## Cc1cc(Nc2ncnc3sc4c(c23)CCN(C(=O)/C=C/CN(C)C)C4)ccc1Oc1ccc2[nH]ncc2c1 [Compound 22, (E)-1-(4-((4-((1H-indazol-5-yl)oxy)-3-methylphenyl)amino)-5,8-dihydropyrido[4′,3′:4,5]thieno[2,3-d]pyrimidin-7(6H)-yl)-4-(dimethylamino)but-2-en-1-one]
  EC50: < 100 nM

## Cc1cc(Nc2ncnc3sc4c(c23)CCN(C(=O)/C=C/CN(C)C)C4)ccc1Oc1ccc2cn[nH]c2c1 [Compound 23, (E)-1-(4-((4-((1H-indazol-6-yl)oxy)-3-methylphenyl)amino)-5,8-dihydropyrido[4′,3′:4,5]thieno[2,3-d]pyrimidin-7(6H)-yl)-4-(dimethylamino)but-2-en-1-one]
  EC50: < 100 nM

## Cc1ccc(Oc2ccc(Nc3ncnc4sc5c(c34)CCN(C(=O)/C=C/CN3CC4CC3CO4)C5)cc2C)cn1 (stereo not drawn) [Compound 26]
  EC50: < 100 nM

## Cc1ccc(Oc2ccc(Nc3ncnc4sc5c(c34)CCN(C(=O)/C=C/CN(CCO)CCO)C5)cc2C)cn1 [Compound 37]
  EC50: < 100 nM

## Cc1ccc(Oc2ccc(Nc3ncnc4sc5c(c34)CCN(C(=O)/C=C/CNC3COC3)C5)cc2C)cn1 [Compound 38]
  EC50: < 100 nM

## CNC(=O)CNC/C=C/C(=O)N1CCc2c(sc3ncnc(Nc4ccc(Oc5ccc(C)nc5)c(C)c4)c23)C1 [Compound 39]
  EC50: 100 to 350 nM

## Cc1ccc(Oc2ccc(Nc3ncnc4sc5c(c34)CCN(C(=O)/C=C/CNC3CC3)C5)cc2C)cn1 [Compound 40]
  EC50: < 100 nM

## Cc1ccc(Oc2ccc(Nc3ncnc4sc5c(c34)CCN(C(=O)/C=C/CN3CCCC3C(N)=O)C5)cc2C)cn1 (stereo not drawn) [Compound 41]
  EC50: < 100 nM

## Cc1ccc(Oc2ccc(Nc3ncnc4sc5c(c34)CCN(C(=O)/C=C/CN3CC(O)CO3)C5)cc2C)cn1 (stereo not drawn) [Compound 43]
  EC50: 350 to 1000 nM

## Cc1ccc(Oc2ccc(Nc3ncnc4sc5c(c34)CCN(C(=O)/C=C/CN3C4CCC3CC4)C5)cc2C)cn1 [Compound 44]
  EC50: < 100 nM

## Cc1ccc(Oc2ccc(Nc3ncnc4sc5c(c34)CCN(C(=O)/C=C/CNCCS(C)(=O)=O)C5)cc2C)cn1 [Compound 45]
  EC50: < 100 nM

## CCN1CCN(C/C=C/C(=O)N2CCc3c(sc4ncnc(Nc5ccc(Oc6ccc(C)nc6)c(C)c5)c34)C2)CC1 [Compound 46]
  EC50: < 100 nM

## Cc1ccc(Oc2ccc(Nc3ncnc4sc5c(c34)CCN(C(=O)/C=C/CNC3CCOC3)C5)cc2C)cn1 (stereo not drawn) [Compound 47]
  EC50: < 100 nM

## Cc1ccc(Oc2ccc(Nc3ncnc4sc5c(c34)CCN(C(=O)/C=C/CNCC3CN(C)CCO3)C5)cc2C)cn1 (stereo not drawn) [Compound 48]
  EC50: < 100 nM

## Cc1ccc(Oc2ccc(Nc3ncnc4sc5c(c34)CCN(C(=O)/C=C/CNCc3cc(C)n[nH]3)C5)cc2C)cn1 [Compound 49]
  EC50: < 100 nM

## CC(=O)N1CCN(C/C=C/C(=O)N2CCc3c(sc4ncnc(Nc5ccc(Oc6ccc(C)nc6)c(C)c5)c34)C2)CC1 [Compound 51]
  EC50: 100 to 350 nM

## Cc1ccc(Oc2ccc(Nc3ncnc4sc5c(c34)CCN(C(=O)/C=C/CNCc3ccsc3)C5)cc2C)cn1 [Compound 52]
  EC50: < 100 nM

## Cc1ccc(Oc2ccc(Nc3ncnc4sc5c(c34)CCN(C(=O)/C=C/CN3CC(O)C3)C5)cc2C)cn1 [Compound 53]
  EC50: < 100 nM

## Cc1ccc(Oc2ccc(Nc3ncnc4sc5c(c34)CCN(C(=O)/C=C/CNC3CCC3)C5)cc2C)cn1 [Compound 54]
  EC50: < 100 nM

## Cc1ccc(Oc2ccc(Nc3ncnc4sc5c(c34)CCN(C(=O)/C=C/CN3CC=CCC3)C5)cc2C)cn1 [Compound 55]
  EC50: < 100 nM

## CON(C)C/C=C/C(=O)N1CCc2c(sc3ncnc(Nc4ccc(Oc5ccc(C)nc5)c(C)c4)c23)C1 [Compound 56]
  EC50: 350 to 1000 nM

## Cc1ccc(Oc2ccc(Nc3ncnc4sc5c(c34)CCN(C(=O)/C=C/CN3CC4(C3)CS(=O)(=O)C4)C5)cc2C)cn1 [Compound 57]
  EC50: < 100 nM

## Cc1ccc(Oc2ccc(Nc3ncnc4sc5c(c34)CCN(C(=O)/C=C/CN3CCN4C(=O)CCC4C3)C5)cc2C)cn1 (stereo not drawn) [Compound 58]
  EC50: 100 to 350 nM

## COCCN1CCN(C/C=C/C(=O)N2CCc3c(sc4ncnc(Nc5ccc(Oc6ccc(C)nc6)c(C)c5)c34)C2)CC1 [Compound 59]
  EC50: < 100 nM

## Cc1ccc(Oc2ccc(Nc3ncnc4sc5c(c34)CCN(C(=O)/C=C/CN3CCn4cc(C(F)(F)F)nc4C3)C5)cc2C)cn1 [Compound 61]
  EC50: 350 to 1000 nM

## Cc1ccc(Oc2ccc(Nc3ncnc4sc5c(c34)CCN(C(=O)/C=C/CN3CCC(n4ccnc4)CC3)C5)cc2C)cn1 [Compound 62]
  EC50: < 100 nM

## Cc1cc(Nc2ncnc3sc4c(c23)CCN(C(=O)/C=C/CN(C)C)C4)ccc1Oc1cccc(B(O)O)c1 [Compound 64, (E)-(3-(4-((7-(4-(dimethylamino)but-2-enoyl)-5,6,7,8-tetrahydropyrido[4′,3′:4,5]thieno[2,3-d]pyrimidin-4-yl)amino)-2-methylphenoxy)phenyl)boronic acid]
  EC50: < 100 nM

## Cc1ccc(Oc2ccc(Nc3ncnc4sc5c(c34)CCN(C(=O)/C=C/CNCCO)C5)cc2C)cn1 [Compound 65]
  EC50: < 100 nM

## Cc1ccc(Oc2ccc(Nc3ncnc4sc5c(c34)CCN(C(=O)/C=C/CN3C[C@H]4CC[C@@H](C3)O4)C5)cc2C)cn1 [Compound 66]
  EC50: < 100 nM

## Cc1ccc(Oc2ccc(Nc3ncnc4sc5c(c34)CCN(C(=O)/C=C/CN3CCC4(CCOC4)C3)C5)cc2C)cn1 (stereo not drawn) [Compound 67]
  EC50: < 100 nM

## Cc1ccc(Oc2ccc(Nc3ncnc4sc5c(c34)CCN(C(=O)/C=C/CN[C@H]3CC[C@H](OC4CC4)CC3)C5)cc2C)cn1 [Compound 68]
  EC50: < 100 nM

## Cc1ccc(Oc2ccc(Nc3ncnc4sc5c(c34)CCN(C(=O)/C=C/CN[C@H]3CC[C@H](OC(F)F)CC3)C5)cc2C)cn1 [Compound 69]
  EC50: < 100 nM

## Cc1ccc(Oc2ccc(Nc3ncnc4sc5c(c34)CCN(C(=O)/C=C/CN[C@H]3CC[C@H](OCC(F)(F)F)CC3)C5)cc2C)cn1 [Compound 70]
  EC50: < 100 nM

## Cc1ccc(Oc2ccc(Nc3ncnc4sc5c(c34)CCN(C(=O)/C=C/CNC3CCC(C(=O)N(C)C)CC3)C5)cc2C)cn1 (stereo not drawn) [Compound 71]
  EC50: < 100 nM

## Cc1ccc(Oc2ccc(Nc3ncnc4sc5c(c34)CCN(C(=O)/C=C/CNC34CCC(C#N)(CC3)CC4)C5)cc2C)cn1 [Compound 72]
  EC50: < 100 nM

## Cc1ccc(Oc2ccc(Nc3ncnc4sc5c(c34)CCN(C(=O)/C=C/CN[C@H]3CCC[C@H](O)C3)C5)cc2C)cn1 [Compound 73]
  EC50: < 100 nM

## Cc1ccc(Oc2ccc(Nc3ncnc4sc5c(c34)CCN(C(=O)/C=C/CN3CCC(O)C3)C5)cc2C)cn1 (stereo not drawn) [Compound 74]
  EC50: < 100 nM

## Cc1ccc(Oc2ccc(Nc3ncnc4sc5c(c34)CCN(C(=O)/C=C/CN[C@@H](C)CO)C5)cc2C)cn1 [Compound 75]
  EC50: < 100 nM

## Cc1ccc(Oc2ccc(Nc3ncnc4sc5c(c34)CCN(C(=O)/C=C/CN3CC4CC4C3)C5)cc2C)cn1 (stereo not drawn) [Compound 76]
  EC50: < 100 nM

## Cc1cc(Nc2ncnc3sc4c(c23)CCN(C(=O)/C=C/CN2CC3CC2CO3)C4)ccc1Oc1ccc2ncnn2c1 (stereo not drawn) [Compound 77]
  EC50: < 100 nM

## Cc1cc(Nc2ncnc3sc4c(c23)CCN(C(=O)/C=C/CN(C)C(C)(C)C)C4)ccc1Oc1ccc2ncnn2c1 [Compound 80]
  EC50: < 100 nM

## Cc1cc(Nc2ncnc3sc4c(c23)CCN(C(=O)/C=C/CN2CC3C(CO)C3C2)C4)ccc1Oc1ccc2ncnn2c1 (stereo not drawn) [Compound 81]
  EC50: < 100 nM

## Cc1cc(Nc2ncnc3sc4c(c23)CCN(C(=O)/C=C/CN2CC3CC(C3)C2)C4)ccc1Oc1ccc2ncnn2c1 [Compound 82]
  EC50: < 100 nM

## Cc1cc(Nc2ncnc3sc4c(c23)CCN(C(=O)/C=C/CN2CC(C)OC(C)C2C)C4)ccc1Oc1ccc2ncnn2c1 (stereo not drawn) [Compound 83]
  EC50: < 100 nM

## Cc1cc(Nc2ncnc3sc4c(c23)CCN(C(=O)/C=C/CN2CC(C)(C)OC(C)(C)C2)C4)ccc1Oc1ccc2ncnn2c1 [Compound 84]
  EC50: < 100 nM

## O=C(/C=C/CN1CC2CC(C2)C1)N1CCc2c(sc3ncnc(Nc4ccc(Oc5ccc6ncnn6c5)c(Cl)c4)c23)C1 [Compound 85]
  EC50: < 100 nM

## C=C(CN1CCc2c(sc3ncnc(Nc4ccc(Oc5ccc(C)nc5)c(C)c4)c23)C1)C(=O)OCC [Compound 86, Ethyl 2-((4-((3-methyl-4-((6-methylpyridin-3-yl)oxy)phenyl)amino)-5,8-dihydropyrido[4′,3′:4,5]thieno[2,3-d]pyrimidin-7(6H)-yl)methyl)acrylate]
  EC50: 100 to 350 nM

## O=C(/C=C/CN1CC2CC1CO2)N1CCc2c(sc3ncnc(Nc4ccc(Oc5ccc6ncnn6c5)c(Cl)c4)c23)C1 (stereo not drawn) [Compound 87]
  EC50: < 100 nM

## O=C(/C=C/CN1CC2CCC(C2)C1)N1CCc2c(sc3ncnc(Nc4ccc(Oc5ccc6ncnn6c5)c(Cl)c4)c23)C1 [Compound 88]
  EC50: < 100 nM

## CN(C/C=C/C(=O)N1CCc2c(sc3ncnc(Nc4ccc(Oc5ccc6ncnn6c5)c(Cl)c4)c23)C1)C(C)(C)C [Compound 91]
  EC50: < 100 nM

## O=C(/C=C/CN1CC2C(CO)C2C1)N1CCc2c(sc3ncnc(Nc4ccc(Oc5ccc6ncnn6c5)c(Cl)c4)c23)C1 (stereo not drawn) [Compound 92]
  EC50: < 100 nM

## C=CC(=O)N1CCc2[nH]c3ncnc(Nc4ccc(Oc5ccc(C)nc5)c(C)c4)c3c2C1 [Compound 94, 1-(4-((3-methyl-4-((6-methylpyridin-3-yl)oxy)phenyl)amino)-7,8-dihydro-5H-pyrido[3′,4′:4,5]pyrrolo[2,3-d]pyrimidin-6(9H)-yl)prop-2-en-1-one]
  EC50: < 100 nM
